Source: US20200172473A1, “DUAL MODULATORS OF FARNESOID X RECEPTOR AND SOLUBLE EPOXIDE HYDROLASE” (JOHANN WOLFGANG GOETHE-UNIVERSITÄT FRANKFURT AM MAIN, priority 2017, published 2020)

Tests used:
RXRα = target: T1, RXRα (Homo sapiens, UniProt P19793); assay: Gal4-hybrid reporter gene assay RXRα in HEK293T cells; type: cell-based; details: 10 μM
T1 construct: hRXRα-P19793, residues 225-462; expressed in transfected cells; host or cells: HEK293T
T1 sequence (P19793 225-462): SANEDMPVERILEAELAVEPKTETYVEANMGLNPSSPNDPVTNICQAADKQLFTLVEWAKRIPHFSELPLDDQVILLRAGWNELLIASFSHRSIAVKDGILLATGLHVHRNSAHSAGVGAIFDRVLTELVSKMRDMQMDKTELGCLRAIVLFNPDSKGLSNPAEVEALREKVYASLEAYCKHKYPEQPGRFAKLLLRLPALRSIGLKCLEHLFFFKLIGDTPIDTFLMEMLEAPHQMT
Source text: (§1) Hybrid reporter gene assays for PPARα/γ/δ, LXRα/β, RXRα/β/γ, RARα/β/γ, VDR and PXR Plasmids: The Gal4-fusion receptor plasmids pFA-CMV-hPPARα-LBD^52, pFA-CMV-hPPARγ-LBD^52, pFA-CMV-hPPARδ-LBD^52, pFA-CMV-hLXRα-LBD^32 and pFA-CMV-hLXRβ-LBD^32 have been reported previously. […] Frame and sequence of all fusion receptors were verified by sequencing. pFR-Luc (Stratagene) was used as reporter plasmid and pRL-SV40 (Promega) for normalization of transfection efficiency and cell growth.
(§2) Assay procedure: HEK293T cells were grown in DMEM high glucose, supplemented with 10% FCS, sodium pyruvate (1 mM), penicillin (100 U/mL) and streptomycin (100 μg/mL) at 37° C. and 5% CO2. The day before transfection, HEK293T cells were seeded in 96-well plates (2.5·10^4 cells/well). Before transfection, medium was changed to Opti-MEM without supplements. Transient transfection was carried out using Lipofectamine LTX reagent (Invitrogen) according to the manufacturer's protocol with pFR-Luc (Stratagene), pRL-SV40 (Promega) and pFA-CMV-hRXRα-LBD. 5 h after transfection, medium was changed to Opti-MEM supplemented with penicillin (100 U/mL), streptomycin (100 μg/mL), now additionally containing 0.1% DMSO and the respective test compound or 0.1% DMSO alone as untreated control. […] Luminescence was measured with an Infinite M200 luminometer (Tecan Deutschland GmbH). […]

PPARα = target: T2, PPARα (Homo sapiens, UniProt Q07869); assay: Gal4-hybrid reporter gene assay PPARα in HEK293T cells; type: cell-based; details: 10 μM
T2 construct: pFA-CMV-hPPARα-LBD; expressed in transfected cells; host or cells: HEK293T
T2 sequence (Q07869 239-466 limits assumed): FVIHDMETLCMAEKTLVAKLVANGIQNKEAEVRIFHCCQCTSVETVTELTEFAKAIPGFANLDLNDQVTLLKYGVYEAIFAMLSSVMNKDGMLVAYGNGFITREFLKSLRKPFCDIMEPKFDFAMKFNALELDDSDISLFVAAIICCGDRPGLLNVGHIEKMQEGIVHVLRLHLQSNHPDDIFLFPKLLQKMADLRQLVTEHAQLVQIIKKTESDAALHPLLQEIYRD
Source text: as §1, §2

[1] = tested on: related nuclear receptors (PPARs, LXRs, RXRs, RARs, PXR and VDR); assay: selectivity profile in Gal4-hybrid reporter gene assays (panel statement); type: cell-based, human; details: except PPARγ
Source text: as §1, §2

CC(C)(C)c1ccc(C(=O)NCc2ccc(NS(C)(=O)=O)cc2Cl)cc1 [compound 57, 4-(tert-Butyl)-N-(2-chloro-4-(methylsulfonamido)benzyl)benzamide]
inactive: activity on RXRα (RXRα) | activity on PPARα (PPARα) | activity on related nuclear receptors [1]
